Results reported in DBAASP.
Values after ≈ are worked out from the molar mass of the structure shown.

Experiments:
Assay in all cases: ≥ marks a high value that may be exact or a test limit, other limits are often not marked, values filed in µg/mL are converted to µM
[1] = system: Staphylococcus aureus USA 300
[2] = system: Staphylococcus aureus USA 300 LAC
[3] = system: Pseudomonas aeruginosa PAO1
[4] = system: Klebsiella pneumoniae ATCC 13883
[5] = system: Escherichia coli ATCC 25922
[6] = system: Klebsiella pneumoniae ATCC 27736
[7] = system: Cryptococcus neoformans
[8] = system: Escherichia coli ATCC 9637
[9] = system: Pseudomonas aeruginosa ATCC BAA-427
[10] = system: Candida albicans ATCC 10231
[11] = system: Sporothrix schenckii
[12] = system: Staphylococcus aureus ATCC BAA-44
[13] = system: Staphylococcus aureus ATCC 700699
[14] = system: Staphylococcus aureus ATCC 29213
[15] = system: Candida parapsilosis ATCC 22019
[16] = system: Staphylococcus aureus ATCC 33592
[17] = system: Staphylococcus aureus ATCC 700698
[18] = system: Bacillus subtilis ATCC 6633
[19] = system: Staphylococcus aureus ATCC 25923
[20] = system: Pseudomonas aeruginosa 1125
[21] = system: Acinetobacter baumannii ATCC BAA-1605
[22] = system: Pseudomonas aeruginosa ATCC 15442
[23] = system: Pseudomonas aeruginosa ATCC 9721
[24] = system: Acinetobacter baumannii NR-9667
[25] = system: Acinetobacter baumannii ATCC 19606
[26] = system: Pseudomonas aeruginosa 1131
[27] = system: Pseudomonas aeruginosa ATCC 27853
[28] = system: Acinetobacter baumannii NR-13382
[29] = system: Pseudomonas aeruginosa ATCC 35032
[30] = system: Acinetobacter baumannii ATCC BAA-747
[31] = system: Pseudomonas aeruginosa ATCC 9027
[32] = system: Acinetobacter baumannii NR-13375
[33] = system: Pseudomonas aeruginosa 1017
[34] = system: Pseudomonas aeruginosa ATCC 10145
[35] = system: Acinetobacter baumannii NR-17784
[36] = system: Pseudomonas aeruginosa 1109
[37] = system: Pseudomonas aeruginosa ATCC 25619
[38] = system: Pseudomonas aeruginosa ATCC BAA-1744
[39] = system: Pseudomonas aeruginosa PA-W14
[40] = system: Staphylococcus aureus NCTC 8325-4
[41] = system: Pseudomonas aeruginosa PA-W1
[42] = system: Staphylococcus aureus
[43] = system: Klebsiella pneumoniae
[44] = system: Escherichia coli K-12
[45] = system: Bacillus cereus C737
[46] = system: Escherichia coli UB1005
[47] = system: Streptococcus oralis ATCC 9811
[48] = system: Streptococcus gordonii ATCC 10558
[49] = system: Streptococcus sanguinis ATCC 10556

Work on `CC[C@H](C)[C@H](NC(=O)[C@H](CCCN=C(N)N)NC(=O)[C@H](CCCN=C(N)N)NC(=O)[C@H](CC(C)C)NC(=O)[C@H](CCCN=C(N)N)NC(=O)[C@H](Cc1c[nH]c2ccccc12)NC(=O)[C@@H](N)Cc1c[nH]c2ccccc12)C(=O)N[C@@H](Cc1c[nH]c2ccccc12)C(N)=O` [WWRLRRIW] yielded an MIC [1] of 12.5 µM (≈ 15.9 µg/mL), an MIC [2] of 12.5 µM (≈ 15.9 µg/mL) and an MIC [3] of 12.5 µM (≈ 15.9 µg/mL). It also gave an MIC [4] of 25 µM (≈ 31.8 µg/mL) and an MIC [5] of 25 µM (≈ 31.8 µg/mL).

`CC[C@H](C)[C@H](NC(=O)[C@H](C)NC(=O)CNC(=O)[C@H](CCCCN)NC(=O)[C@@H](NC(=O)[C@H](CC(C)C)NC(=O)[C@H](Cc1c[nH]c2ccccc12)NC(=O)CNC(=O)[C@H](Cc1ccccc1)NC(=O)[C@@H](N)Cc1ccccc1)[C@@H](C)CC)C(=O)N[C@@H](Cc1cnc[nH]1)C(=O)N[C@@H](C)C(=O)NCC(=O)N[C@@H](CCCCN)C(=O)N[C@@H](C)C(=O)N[C@H](C(=O)N[C@@H](Cc1cnc[nH]1)C(=O)N1CCC[C@H]1C(=O)N[C@@H](CC(C)C)C(=O)N[C@H](C(=O)N[C@@H](Cc1cnc[nH]1)C(=O)N[C@@H](CCCN=C(N)N)C(=O)N[C@@H](CCCN=C(N)N)C(=O)N[C@@H](CCCN=C(N)N)C(=O)N[C@@H](Cc1cnc[nH]1)C(=O)O)[C@@H](C)CC)[C@@H](C)CC` [FFGWLIKGAIHAGKAIHPLIHRRRH] gave an MIC [6] of 13.6 µM (≈ 39.9 µg/mL), an MIC [7] of 13.6 µM (≈ 39.9 µg/mL) and an MIC [8] of 3 µM (≈ 8.8 µg/mL). The MIC [9] was 6.8 µM (≈ 19.9 µg/mL), the MIC [10] was 13.6 µM (≈ 39.9 µg/mL) and the MIC [11] was 27.2 µM (≈ 79.8 µg/mL). For the same molecule, the MIC [12] was 3 µM (≈ 8.8 µg/mL), the MIC [13] was 3 µM (≈ 8.8 µg/mL) and the MIC [14] was 6.8 µM (≈ 19.9 µg/mL). The MIC [15] was 13.6 µM (≈ 39.9 µg/mL), the MIC [16] was 1.6 µM (≈ 4.69 µg/mL) and the MIC [17] was 3 µM (≈ 8.8 µg/mL). The MIC [18] was 3 µM (≈ 8.8 µg/mL) and the MIC [19] was 3 µM (≈ 8.8 µg/mL).

`CC[C@H](C)[C@H](NC(=O)[C@H](CCCN=C(N)N)NC(=O)[C@H](CCCN=C(N)N)NC(=O)[C@H](CC(C)C)NC(=O)[C@@H](N)Cc1c[nH]c2ccccc12)C(=O)N[C@@H](CCCCN)C(=O)N[C@@H](C)C(=O)N[C@@H](Cc1c[nH]c2ccccc12)C(=O)N[C@@H](CC(C)C)C(=O)N[C@@H](CCCN=C(N)N)C(=O)N[C@@H](CCCN=C(N)N)C(=O)N[C@@H](CCCCN)C(=O)N[C@@H](CCCN=C(N)N)C(=O)N[C@@H](CCCCN)C(=O)O` [WLRRIKAWLRRKRK] gave an MIC [20] of at least 32 µM, an MIC [21] of 16 µM (≈ 31.5 µg/mL) and an MIC [22] of 16 µM (≈ 31.5 µg/mL). For the same molecule, the MIC [23] was 16 µM (≈ 31.5 µg/mL), the MIC [24] was at least 32 µM and the MIC [25] was 16 µM (≈ 31.5 µg/mL). For the same molecule, the MIC [26] was 16 µM (≈ 31.5 µg/mL), the MIC [27] was 8 µM (≈ 15.7 µg/mL) and the MIC [28] was 16 µM (≈ 31.5 µg/mL). For the same molecule, the MIC [29] was 16 µM (≈ 31.5 µg/mL), the MIC [30] was 8 µM (≈ 15.7 µg/mL) and the MIC [31] was 4 µM (≈ 7.87 µg/mL). For the same molecule, the MIC [32] was 8 µM (≈ 15.7 µg/mL), the MIC [33] was at least 64 µM and the MIC [34] was 16 µM (≈ 31.5 µg/mL). For the same molecule, the MIC [35] was 4 µM (≈ 7.87 µg/mL), the MIC [36] was 8 µM (≈ 15.7 µg/mL) and the MIC [37] was 4 µM (≈ 7.87 µg/mL). The MIC [38] was 16 µM (≈ 31.5 µg/mL).

With `NCCCC[C@H](NC(=O)[C@H](Cc1c[nH]c2ccccc12)NC(=O)[C@H](Cc1c[nH]c2ccccc12)NC(=O)[C@H](CCCCN)NC(=O)[C@H](CCCCN)NC(=O)[C@H](Cc1c[nH]c2ccccc12)NC(=O)[C@H](Cc1c[nH]c2ccccc12)NC(=O)[C@H](CCCCN)NC(=O)[C@H](CCCCN)NC(=O)[C@@H](N)Cc1c[nH]c2ccccc12)C(N)=O` [WKKWWKKWWK] the MIC [3] was 15.6 µM (≈ 24.8 µg/mL), the MIC [39] was at least 125 µM and the MIC [40] was 15.6 µM (≈ 24.8 µg/mL). For the same molecule, the MIC [41] was 31.3 µM (≈ 49.7 µg/mL), the MIC [42] was 15.6 µM (≈ 24.8 µg/mL) and the MIC [43] was 62.5 µM (≈ 99.3 µg/mL). It also gave an MIC [44] of 15.6 µM (≈ 24.8 µg/mL).

With `CC[C@H](C)[C@H](NC(=O)[C@H](CC(=O)O)NC(=O)[C@H](Cc1ccccc1)NC(=O)[C@H](CC(C)C)NC(=O)CN)C(=O)N[C@H](C(=O)N[C@@H](CCCCN)C(=O)N[C@@H](CCCCN)C(=O)N[C@H](C(=O)N[C@H](C(=O)NCC(=O)N[C@@H](C)C(=O)N[C@@H](CC(C)C)C(N)=O)C(C)C)C(C)C)C(C)C` [GLFDIVKKVVGAL] the MIC [1] was 11.8 µM (≈ 16 µg/mL), the MIC [3] was over 94.2 µM and the MIC [45] was at least 47.1 µM. It also gave an MIC [46] of 23.6 µM (≈ 32 µg/mL).

`CC[C@H](C)[C@H](NC(=O)[C@H](CCC(N)=O)NC(=O)[C@H](CCC(=O)O)NC(=O)[C@H](CCCCN)NC(=O)[C@@H]1CCCN1C(=O)[C@H](CC(C)C)NC(=O)[C@H](CS)NC(=O)[C@H](CO)NC(=O)[C@H](CC(C)C)NC(=O)[C@@H](NC(=O)[C@H](C)NC(=O)[C@H](CS)NC(=O)[C@H](CCCN=C(N)N)NC(=O)CNC(=O)CNC(=O)CNC(=O)CNC(=O)[C@H](Cc1c[nH]c2ccccc12)NC(=O)[C@@H](NC(=O)[C@H](Cc1cnc[nH]1)NC(=O)[C@H](CCSC)NC(=O)CNC(=O)[C@@H]1CCCN1C(=O)[C@H](C)NC(=O)[C@H](CC(=O)O)NC(=O)[C@@H]1CCCN1C(=O)[C@H](CC(C)C)NC(=O)[C@H](CCCCN)NC(=O)[C@@H](N)CCCN=C(N)N)[C@@H](C)O)C(C)C)C(=O)O` [RKLPDAPGMHTWGGGGRCAVLSCLPKEQI] gave an MIC [47] of at least 208 µM, an MIC [48] of at least 294 µM and an MIC [49] of at least 227 µM.
